Source: patent US20260262643A1, “HERBICIDAL BENZOXAZINES” (FMC CORPORATION, priority 2022, published 2026)

Columns and labels:
oat, wild [1] = experiment: Test A preemergence; assay type: in vivo, Avena fatua; conditions: Avena fatua, pre-emergence, 240 h, 0 to 100 scale, read-out: Plant response rating, Oat, Wild; for pest or weed control at 125 g/ha: 125 g ai/ha; for pest or weed control at 500 g/ha: 500 g ai/ha, visual injury after 10 days, 0 is no effect, 100 is complete control
Summary of the method: (§1)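 Seeds in loam–sand blend received a directed preemergence soil spray of compound in non-phytotoxic solvent with surfactant; postemergence plants (2–10 cm, one- to two-leaf stage) were sprayed with the same formulation. After 10 days in greenhouse, injury was rated visually versus untreated controls, 0 (no effect) to 100 (complete control).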

sedge, umbrella = experiment: Test B flooded paddy test; assay type: in vivo, Cyperus difformis; conditions: Cyperus difformis, 312 h; 250 g ai/ha, Flood, 13 days, 0 to 100 scale (0 no effect, 100 complete control); read-out: Plant response rating, Sedge, Umbrella
Summary of the method: (§2)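 Compound is introduced into paddy water covering soil by 3 cm, treating plants that have reached two leaves. Pots are kept flooded at that depth under greenhouse conditions. Assessment at 13 days gives a 0–100 visual control score.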

soybean = experiment: Test A preemergence; assay type: in vivo, Glycine max; conditions: Glycine max, pre-emergence, 240 h, 0 to 100 scale, read-out: Plant response rating, Soybean; for plant injury at 125 g/ha: 125 g ai/ha; for plant injury at 500 g/ha: 500 g ai/ha, visual injury after 10 days, 0 is no effect, 100 is complete control
Summary of the method: as §1

ryegrass, Italian = experiment: Test A postemergence; assay type: in vivo, Lolium multiflorum; conditions: Lolium multiflorum, post-emergence, 240 h, postemergence, 10 days, 0 to 100 scale (0 no effect, 100 complete control); for pest or weed control at 125 g/ha: 125 g ai/ha, read-out: Ryegrass, Italian plant response rating; for pest or weed control at 500 g/ha: 500 g ai/ha, visual injury, read-out: Plant response rating, Ryegrass, Italian
Summary of the method: as §1

barnyardgrass = experiment: Test A preemergence; assay type: in vivo, Echinochloa crusgalli; conditions: visual injury after 10 days, 0 to 100 scale, 0 is no effect, 100 is complete control
Summary of the method: as §1

kochia = experiment: Test A preemergence; assay type: in vivo, Bassia scoparia; conditions: Bassia scoparia, pre-emergence, 240 h, 0 to 100 scale, read-out: Plant response rating, Kochia; for pest or weed control at 125 g/ha: 125 g ai/ha; for pest or weed control at 500 g/ha: 500 g ai/ha, visual injury after 10 days, 0 is no effect, 100 is complete control
Summary of the method: as §1

oat, wild [2] = experiment: Test A postemergence; assay type: in vivo, Avena fatua; conditions: Avena fatua, post-emergence, 240 h, postemergence, 10 days, 0 to 100 scale (0 no effect, 100 complete control); for pest or weed control at 125 g/ha: 125 g ai/ha, read-out: Oat, Wild plant response rating; for pest or weed control at 500 g/ha: 500 g ai/ha, visual injury, read-out: Plant response rating, Oat, Wild
Summary of the method: as §1

blackgrass [3] = experiment: Test A preemergence; assay type: in vivo, Alopecurus myosuroides; conditions: Alopecurus myosuroides, pre-emergence, 240 h, 0 to 100 scale, read-out: Plant response rating, Blackgrass; for pest or weed control at 125 g/ha: 125 g ai/ha; for pest or weed control at 500 g/ha: 500 g ai/ha, visual injury after 10 days, 0 is no effect, 100 is complete control
Summary of the method: as §1

blackgrass [4] = experiment: Test A postemergence; assay type: in vivo, Alopecurus myosuroides; conditions: Alopecurus myosuroides, post-emergence, 240 h, postemergence, 10 days, 0 to 100 scale (0 no effect, 100 complete control); for pest or weed control at 125 g/ha: 125 g ai/ha, read-out: Blackgrass plant response rating; for pest or weed control at 500 g/ha: 500 g ai/ha, visual injury, read-out: Plant response rating, Blackgrass
Summary of the method: as §1

galium = experiment: Test A postemergence; assay type: in vivo, Galium aparine; conditions: Galium, post-emergence, 240 h, postemergence, 10 days, 0 to 100 scale (0 no effect, 100 complete control); for pest or weed control at 125 g/ha: 125 g ai/ha, read-out: Galium plant response rating; for pest or weed control at 500 g/ha: 500 g ai/ha, visual injury, read-out: Plant response rating, Galium
Summary of the method: as §1

ducksalad = experiment: Test B flooded paddy test; assay type: in vivo, Heteranthera limosa; conditions: Heteranthera limosa, 312 h, 250 g ai/ha, Flood, 13 days, 0 to 100 scale (0 no effect, 100 complete control); read-out: Plant response rating, Ducksalad
Summary of the method: as §2

rice = experiment: Test B flooded paddy test; assay type: in vivo, Oryza sativa; conditions: Oryza sativa, 312 h; 250 g ai/ha, Flood, 13 days, 0 to 100 scale (0 no effect, 100 complete control); read-out: Plant response rating, Rice
Summary of the method: as §2

wheat = experiment: Test A postemergence; assay type: in vivo, Triticum aestivum; conditions: Triticum aestivum, post-emergence, 240 h, postemergence, 10 days, 0 to 100 scale (0 no effect, 100 complete control); for plant injury at 125 g/ha: 125 g ai/ha, read-out: Wheat plant response rating; for plant injury at 500 g/ha: 500 g ai/ha, visual injury, read-out: Plant response rating, Wheat
Summary of the method: as §1

| SMILES | pest or weed control at 125 g/ha (oat, wild [1]) | pest or weed control at 500 g/ha (oat, wild [1]) | pest or weed control at 250 g/ha (sedge, umbrella) | plant injury at 125 g/ha (soybean) | plant injury at 500 g/ha (soybean) | pest or weed control at 125 g/ha (ryegrass, Italian) | pest or weed control at 500 g/ha (ryegrass, Italian) | Plant response rating, Barnyardgrass (barnyardgrass; 125 g ai/ha) | Plant response rating, Barnyardgrass (barnyardgrass; 500 g ai/ha) | pest or weed control at 125 g/ha (kochia) | pest or weed control at 500 g/ha (kochia) | pest or weed control at 125 g/ha (oat, wild [2]) | pest or weed control at 500 g/ha (oat, wild [2]) | pest or weed control at 125 g/ha (blackgrass [3]) | pest or weed control at 500 g/ha (blackgrass [3]) | pest or weed control at 125 g/ha (blackgrass [4]) | pest or weed control at 500 g/ha (blackgrass [4]) | pest or weed control at 125 g/ha (galium) | pest or weed control at 500 g/ha (galium) | pest or weed control at 250 g/ha (ducksalad) | other results |
| --- | --- | --- | --- | --- | --- | --- | --- | --- | --- | --- | --- | --- | --- | --- | --- | --- | --- | --- | --- | --- | --- |
| CC(C)c1ncn(-c2cc3c(c(C(=O)N4C[C@H](C)Oc5c(Cl)cccc54)c2)OCC3)n1 [Compound 147] | 20% | 90% | 95% | 0% | 100% | 50% | 80% | 40 | 100 | 70% | 90% | 30% | 80% | 20% | 90% | 70% | 100% | 100% | 100% | 0% | plant injury at 250 g/ha (rice): 0%; plant injury at 125 g/ha (wheat): 10%; plant injury at 500 g/ha (wheat): 60% |
| C[C@H]1CN(C(=S)c2cccc(-n3cncn3)c2)c2cccc(Cl)c2O1 [Compound 139, [(2S)-8-Chloro-2,3-dihydro-2-methyl-4H-1,4-benzoxazin-4-yl][3-(1H-1,2,4-triazol-1-yl)phenyl]methanethione] | 20% | 90% | 75% | 0% | 40% | 60% | 100% | 70 | 90 | 0% | 0% | 0% | 60% | 70% | 90% | 80% | 90% | 80% | 90% | 75% | plant injury at 250 g/ha (rice): 0%; plant injury at 125 g/ha (wheat): 20%; plant injury at 500 g/ha (wheat): 50% |
